Assay [1] in a line: Fluorescence ANTS/DPX vesicle leakage assay in POPC/POPG (3:1). Conditions: ANTS/DPX, POPC/POPG (3:1) 100 nm vesicles, P/L about 1:160 per peptide, mixtures 1:1, 10 mM HEPES pH 7.5, 155 mM NaCl, 30 °C, 600 s, % of Triton-X-100 leakage, fluorescence, mean of n = 3. The method, then:
The synergy was also investigated by a fluorescence ANTS/DPX leakage assay[24],[27],[30]. As described in the Methods section, leakage from POPC/POPG (3:1) vesicles was measured for 10 minutes after the addition of vesicles to a peptide solution. Leakage is expressed as percentage of the full leakage, which was obtained after addition of detergent. A synergy factor was defined to describe the enhancement of leakage of the mixture compared to the sum of the extent of leakage for each component. […] In general a synergy factor above 2 indicated synergy. […] In the leakage assay, this pore formation can be studied under more controlled conditions. Here we use two lipid compositions for the vesicles, which are mimicking bacterial membranes.
Leakage of small unilamellar vesicles induced by the peptides was studied using a standard fluorescence assay.
The appropriate lipids for each experiment were dissolved in CHCl3, together with 0.02 mol-% Rhodamine-PE (Rh-PE). […] This stock suspension was subjected to 10 freeze-thaw cycles and then frozen. Appropriate aliquots of the stock lipid suspension were unfrozen each day and extruded (41 times) through polycarbonate membranes with 100 nm pore size, and stored at room temperature overnight. The fluorophore and quencher outside the vesicles were removed by size exclusion chromatography using spin-columns (Pierce centrifuge column, 2 ml, Life Technologies GmbH, Darmstadt, Germany) filled with Sephacryl 100-HR (2 min, 1500 × g). For elution, a 10 mM HEPES buffer (pH 7.5) was used, containing 155 mM NaCl to balance the osmolarity. After extrusion and removal of the external dye and quencher, the lipid concentration usually decreases. Therefore, before each set of measurements a rhodamine spectrum was recorded to determine the actual concentration of lipids, which was referenced to a spectrum taken of vesicles made by sonification without any subsequent treatment.
Fluorescence experiments were performed on a FluoroMax2 spectrofluorimeter (HORIBA Jobin Yvon, Unterhaching, Germany) equipped with a thermostated sample holder and magnetic stirrer, using an excitation wavelength of 355 nm, an emission wavelength of 508 nm, and slit widths of 5 nm. The peptide solutions were placed in elution buffer in a 1 cm standard cuvette at 30 °C. 100 s after the start of the measurement lipid vesicles were added, and the intensity of the fluorescence at 508 nm was recorded. The leakage was measured during 600 s after addition of vesicles, and the measurement was terminated after addition of Triton-X-100 (0.25% v/v), which dissolved the vesicles, and yielded 100% leakage. To determine the background signal of the vesicles themselves, several blanks were recorded per measurement set. From the leakage values of the peptides alone and of the mixture of two peptides a synergy factor SF was calculated:3 SF=L(A+B)/[L(A)+L(B)] […] Measurements were repeated three times and average values and standard deviations calculated for the leakage and the synergy factors. An average SF ≥ 2 was taken to indicate synergy.

Assay [2] has as its system E. coli DSM 1103. Put plainly: Checker-board assay (FICI). In kind it is cell-based, Escherichia coli. Conditions: below 0.5 = synergistic activity. As to the method: A suitable method to study synergistic antimicrobial activity is the so-called checker-board assay, described in the Methods section. We performed such experiments on one Gram-negative bacterium, E. coli, and one Gram-positive one, S. aureus. From this method a fractional inhibitory concentration index (FICI) is determined, and when this is below 0.5, the peptides are said to have a synergistic effect against bacteria. This is the biologically relevant effect, but we are here interested in the atomistic details of the interactions behind the effect. Therefore we also use biophysical methods.
The antimicrobial activity of the peptides was investigated with a standard MIC assay[87],[88] on one Gram positive (Staphylococcus aureus, DSM 1104, ATCC 25923) and one Gram negative bacterial strain (Escherichia coli, DSM 1103, ATCC 25922). Bacteria were grown in Müller-Hinton medium (MH) at 37 °C and 220 rpm. Overnight cultures were inoculated from a single colony and grown for approximately 16 h. Day cultures were grown for approximately 3 h until they reached the exponential growth phase. These suspensions were diluted with MH-medium to a concentration of 10^6 colony-forming units (CFU) per ml. The microtiter plates (96 wells of 100 µL) were filled with 50 µL of MH, and serial 2-fold dilutions of each peptide were arranged in triplets along the columns. […] The MIC value was determined visually, as the lowest peptide concentration which inhibited bacterial growth in at least two out of three columns.
To visualize synergy between different peptides, a two-dimensional dilution assay was used[89],[90]. […] From these values, fractional inhibitory concentration indices (FICIs) were calculated with the following formula[89],[91]:1 FICI=[MIC(A)^comb/MIC(A)^alone]+[MIC(B)^comb/MIC(B)^alone] In this formula, MIC(A)^alone is the MIC value determined for peptide A alone, and MIC(A)^comb is the concentration of peptide A at the MIC determined for the combination. […]

[3] abbreviates: Table S3 series (charge mutants).
Where [4] appears, read: Table S7 series (PGLa-to-MSI mutants).

No end group written: not given here.

On to “GIGKFLHSAKKFGKAFVGKIMNS-NH 2 (GIGKFLHSAKKFGKAFVGKIMNS-NH2) [MAG2-E19K-amide, amidated MAG2 E19K mutant]”, for which the “Leakage, mean value” in assay [1] (setting [3]) turned out to be 2.9%. Same read-out and setting: the result for “GIGKFLHSAKKFGKAFVGKIMNS-OH [MAG2-E19K, MAG2 charge mutant E19K]” reads 4.2%. As for “GMASKAGAIAGKIAKIAGKIA-NH2 [PtM-c1, PGLa to MSI-103 mutant, segment C replaced]”, the “Leakage, mean value” in assay [1] (setting [4]) was 1.4%. Further, the “FICI in combination with MAG2-WT” value in assay [2] is given as “below 0.5”.

In the case of “GMASKAGKIAGKIAKVALKAL-NH2 (also: 15N-labeled Ala10) [PtM-A8K, PGLa single mutant A8K]”, the “Leakage, mean value” in assay [1] (setting [4]) is 2.5%. The same measure, in the same setting: the result for “GMASKIGAIAGKIAKVALKAL-NH2 (also: 15N-labeled Ala10) [PtM-A6I, PGLa single mutant A6I]” reads 2.0%. For “KIAGKAGAIAGKIAKVALKAL-NH2 [PtM-a2, PGLa to MSI-103 mutant, three amino acids converted]”, in assay [1] (setting [4]), the “Leakage, mean value” turned out to be 2.4%. In addition, the “FICI in combination with MAG2-WT” value in assay [2] was “below 0.5”. Turning to “KIAGKIGKIAGKIAKIAGKIA-NH2 [MtP-A7G, MSI-103 to PGLa single mutant A7G]”, in assay [1] (Table S11 series (MSI-to-PGLa mutants)), the “Leakage, mean value” was determined as 1.4%. Further, the “FICI in combination with MAG2-WT” value in assay [2] is “below 0.5”.
